Data published in patent US8865894B2, “Oxazolidin-2-one compounds and uses thereof” (Novartis AG, priority 2012, dated 2014).

Key:
Format in all cases: cell-based
mTOR = molecular target: T1, mTOR (Mus musculus, UniProt Q9JLN9); test: Cellular assay mTOR (phospho-T389 S6K1 SureFire in TSC1-/- MEF cells); conditions: TSC1-/- MEF cells; read-out: mTOR S6K(T389)_TSC1ko/ IC50
T1 construct: endogenous in cells; host or cells: TSC1-/- MEF (mouse embryo fibroblasts)
From the text: A cell based assay (384-well format) was developed for determination of compound effects on cellular mTOR kinase activity in MEF (mouse embryo fibroblasts) cells derived from mice lacking TSC1 (Tuberosclerosis Complex1) a potent suppressor of mTOR kinase activity. Due to lack of TSC1 the mTOR kinase is constitutively activated resulting in permanent phosphorylation of Thr 389 of S6 kinase 1 (S6K1) which is one of the downstream targets of mTOR.
Using a SureFire Kit that enables to determine the phosphorylation of Thr389 on the S6K1 an assay was developed, validated and implemented in the Alpha-Screen format that allows the quantitative determination of phospho-T389 of S6K1 in cell lysates. […] These were in agreement with those values obtained with the biochemical mTOR ATP-binding assay enabling a quantitative comparison of potency of mTOR inhibitors.
TSC1−/− MEFs cells (Kwiatkowski, D. J., Zhang, H., Bandura, J. L., Heiberger, K. M., Glogauer, M., el-Hashemite, N., and Onda, H. (2002) Hum. Mol. Genet. 11, 525-534) were cultured in DMEM high glucose medium supplemented with 10% FBS (Invitrogen), 2 mM Glutamine and 1% (w/v) Penicillin/Streptomycin at 37° C., 5% CO2.
The SureFire kit for determination of P70S6kinase phosphorylation was purchased from Perkin Elmer (p70S6K p-T389, #TGR70S50K) and the assay was performed according to the instructions of the supplier and according to the generic method for SureFire assays. Shortly, 5 μL cell lysate per well were transferred to 384-well white proxy-plates (for luminescent readout) and mixed with […] and […] (final volume: 12 μL). After 3 h incubation in the dark at RT luminescence was read with the Envision Reader (Perkin Elmer). Untreated cells were used as control (high control) and cells treated with 3 μM BEZ235 were used as low control. The assay window between the signals obtained for the high and the low controls were defined as 100% and compound effects were expressed as percent inhibition. IC50 values were calculated from the dose response curves by graphical extrapolation.

[1] = molecular target: T2, human PI3Kdelta p110 catalytic subunit (Rat-1 pBABEpuro Myr-HA-hp110 delta) (Homo sapiens, UniProt O00329); test: Cellular assay PI3Kdelta (p-Akt(S473) SureFire, Rat-1_PI3Kdelta cells); conditions: 1 h compound treatment, read-out: Rat1-PI3Kd/ IC50
T2 construct: Myr (myristoylation signal) (N); HA (N); expressed in transfected cells; host or cells: Rat-1
T2 sequence (O00329 whole entry): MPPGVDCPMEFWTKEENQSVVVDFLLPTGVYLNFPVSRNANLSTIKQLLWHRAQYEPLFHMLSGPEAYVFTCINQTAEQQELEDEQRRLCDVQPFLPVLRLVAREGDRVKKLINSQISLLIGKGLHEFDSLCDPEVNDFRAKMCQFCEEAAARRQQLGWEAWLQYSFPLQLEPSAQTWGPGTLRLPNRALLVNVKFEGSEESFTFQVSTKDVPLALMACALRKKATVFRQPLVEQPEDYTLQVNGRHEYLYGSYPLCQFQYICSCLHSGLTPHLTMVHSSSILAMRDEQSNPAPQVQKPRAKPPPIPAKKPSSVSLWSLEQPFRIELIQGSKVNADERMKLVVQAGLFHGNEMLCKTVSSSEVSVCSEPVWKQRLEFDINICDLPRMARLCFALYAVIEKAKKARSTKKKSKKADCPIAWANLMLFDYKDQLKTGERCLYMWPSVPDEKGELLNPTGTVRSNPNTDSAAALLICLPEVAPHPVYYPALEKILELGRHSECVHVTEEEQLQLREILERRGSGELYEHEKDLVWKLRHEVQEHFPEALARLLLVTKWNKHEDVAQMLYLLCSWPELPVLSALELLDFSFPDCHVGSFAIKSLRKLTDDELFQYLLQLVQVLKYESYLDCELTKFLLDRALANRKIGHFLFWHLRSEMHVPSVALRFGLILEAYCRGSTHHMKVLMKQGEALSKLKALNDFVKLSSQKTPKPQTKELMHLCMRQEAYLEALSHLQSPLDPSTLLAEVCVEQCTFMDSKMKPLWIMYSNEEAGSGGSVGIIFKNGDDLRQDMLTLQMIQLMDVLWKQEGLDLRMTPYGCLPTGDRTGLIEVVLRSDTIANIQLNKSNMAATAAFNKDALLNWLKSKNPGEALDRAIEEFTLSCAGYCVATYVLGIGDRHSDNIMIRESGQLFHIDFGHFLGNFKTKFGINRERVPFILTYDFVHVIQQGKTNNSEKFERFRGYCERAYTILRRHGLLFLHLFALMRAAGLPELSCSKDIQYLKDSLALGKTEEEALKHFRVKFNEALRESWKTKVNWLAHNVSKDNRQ
T2 sequence (Q63787 whole entry partner): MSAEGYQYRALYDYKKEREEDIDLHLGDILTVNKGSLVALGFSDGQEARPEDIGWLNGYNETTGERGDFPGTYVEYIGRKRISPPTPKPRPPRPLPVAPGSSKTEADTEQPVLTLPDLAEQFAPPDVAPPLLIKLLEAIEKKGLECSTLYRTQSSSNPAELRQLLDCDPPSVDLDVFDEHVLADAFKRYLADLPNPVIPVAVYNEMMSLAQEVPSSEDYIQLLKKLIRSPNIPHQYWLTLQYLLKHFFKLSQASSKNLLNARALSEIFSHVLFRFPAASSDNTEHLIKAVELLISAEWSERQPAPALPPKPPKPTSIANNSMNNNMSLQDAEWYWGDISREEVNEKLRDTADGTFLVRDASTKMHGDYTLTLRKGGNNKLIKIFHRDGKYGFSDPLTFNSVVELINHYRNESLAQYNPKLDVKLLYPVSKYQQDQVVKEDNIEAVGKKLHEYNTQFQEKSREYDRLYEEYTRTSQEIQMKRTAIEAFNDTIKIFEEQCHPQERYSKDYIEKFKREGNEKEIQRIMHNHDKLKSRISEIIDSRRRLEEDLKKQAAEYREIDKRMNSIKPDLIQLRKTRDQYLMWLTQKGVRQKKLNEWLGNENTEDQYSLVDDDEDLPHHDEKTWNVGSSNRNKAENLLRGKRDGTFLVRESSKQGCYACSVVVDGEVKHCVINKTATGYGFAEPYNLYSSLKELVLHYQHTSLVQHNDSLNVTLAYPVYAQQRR
From the text: (§1) AlphaScreen (Amplified Luminescent Proximity Homogeneous Assay, ALPHA, Perkin Elmer) is a non-radioactive bead-based proximity assay technology to study biomolecular interactions in a homogenous microtiter plate format. The brand name SureFire denotes AlphaScreen assays that are adapted to quantify the phosphorylation of endogenous cellular proteins in cell lysates, by using matched antibody pairs, which consist of an anti-phospho-kinase and an anti-kinase antibody. The assay allows characterization of kinase signaling in cells as well as measurement of kinase inhibitor effects. The AlphaScreen technology provides several advantages over standard assay techniques such as ELISA, as it avoids time-consuming washing procedures and reduces plate handling. Furthermore, it is miniaturizable at least to a 384-well format and provides sensitivity down to the femtomolar range, dependent on the affinity of the antibodies included in the individual AlphaScreen SureFire assay kit. High sensitivity is reached by an intrinsic amplification mechanism, which involves production of singlet oxygen molecules. SureFire assay kits are commercially available for specific targets and include pairs of validated antibodies (PerkinElmer). This report describes common procedures applied for AlphaScreen SureFire assays and respective semi-automated steps for routine kinase inhibitor profiling in cell-based assays.
(§2) The Rat-1 cell lines stably overexpressing activated PI3K class I isoforms Rat-1 pBABEpuro Myr-HA-hp110 delta (Rat-1_PI3Kdelta) and Rat-1 pBABEpuro Myr-HA-hp110alpha (Rat-1_PI3Kalpha) and Rat-1 pBABEpuro Myr-HA-hp110 beta (Rat-1_PI3beta) were prepared as described (Maira S M, Stauffer F, Brueggen J, Furet P, Schnell C, Fritsch C, Brachmann S, Chène P, de Pover A, Schoemaker K, Fabbro D, Gabriel D, Simonen M, Murphy L, Finan P, Sellers W, García-Echeverría C (2008), Mol Cancer Ther. 7:1851-63 and Maira S M, Pecchi S, Brueggen J, Huh K, Schnell C, Fritsch C, Nagel T, Wiesmann M, Brachmann S, Dorsch M, Chène P, Schoemaker K, De Pover A, Menezes D, Fabbro D, Sellers W, García-Echeverría C, Voliva C F (2011), Mol. Cancer Ther., accepted). All cell lines were cultivated in complete growth medium (DMEM high glucose, 10% (v/v) fetal bovine serum, 1% (v/v) MEM NEAA, 10 mM HEPES, 2 mM L-glutamine, puromycin (10 μg/mL for Rat-1_PI3Kdelta and Rat-1_PI3Kalpha, 4 ug/mL for Rat-1_PI3beta), 1% (v/v) Pen/Strep) to 90% confluency at 37° C./5% CO2/90% humidity in a humidified CO2 incubator and were split twice a week.
(§3) The following materials were used for p-AKT(S473) detection in Rat-1 cell lysates: Dulbecco's modified Eagle's medium (DMEM) high glucose (Gibco Invitrogen, Basel, Switzerland, Cat. No. 41965), Heat Inactivated Fetal Bovine Serum, Qualified (HI FBS; Gibco Invitrogen, Basel, Switzerland, Lot. No. 16140), MEM non essential amino acids (NEAA; Gibco Invitrogen, Basel, Switzerland, Cat. No. 11140), HEPES (Gibco Invitrogen, Basel, Switzerland, Cat. No. 15630), Penicillin/Streptomycin (Pen/Strep, 100×; Gibco Invitrogen, Basel, Switzerland, Cat. No. 15140-122), L-Glutamine (Gibco Invitrogen, Basel, Switzerland, Cat. No. 25030), Puromycin (Sigma Aldrich, Buchs, Switzerland, Cat. No. P9620), DMSO (MERCK, Dietikon, Switzerland, Cat. No. 8.02912.2500), H2O, MilliQ-H2O unless otherwise stated (MILLIPORE QGARDOOR1, Millipore, Zug, Switzerland), Bovine serum albumine (BSA; Sigma Aldrich, Buchs, Switzerland Cat. No. A8412), SureFire p-Akt 1/2 (Ser473) Assay Kit (PerkinElmer, Schwerzenbach, Switzerland, Cat. No. TGRAS50K).
(§4) The p-Akt(S473) SureFire assay measures the phosphorylation of endogenous cellular Akt 1/2 at Ser473 in cell lysates. Using Rat-1 cells stably expressing myr-HA-tagged versions of the human PI3Kdelta, PI3Kalpha, or PI3Kbeta p110 catalytic subunit isoforms, the assay was developed as a two-plate protocol in a 384-well format.

[2] = molecular target: T3, human PI3Kalpha p110 catalytic subunit (Rat-1 pBABEpuro Myr-HA-hp110alpha) (Homo sapiens, UniProt P42336); test: Cellular assay PI3Kalpha (p-Akt(S473) SureFire, Rat-1_PI3Kalpha cells); conditions: 1 h compound treatment, read-out: Rat1-PI3Ka/ IC50
T3 construct: Myr (myristoylation signal) (N); HA (N); expressed in transfected cells; host or cells: Rat-1
T3 sequence (P42336 whole entry): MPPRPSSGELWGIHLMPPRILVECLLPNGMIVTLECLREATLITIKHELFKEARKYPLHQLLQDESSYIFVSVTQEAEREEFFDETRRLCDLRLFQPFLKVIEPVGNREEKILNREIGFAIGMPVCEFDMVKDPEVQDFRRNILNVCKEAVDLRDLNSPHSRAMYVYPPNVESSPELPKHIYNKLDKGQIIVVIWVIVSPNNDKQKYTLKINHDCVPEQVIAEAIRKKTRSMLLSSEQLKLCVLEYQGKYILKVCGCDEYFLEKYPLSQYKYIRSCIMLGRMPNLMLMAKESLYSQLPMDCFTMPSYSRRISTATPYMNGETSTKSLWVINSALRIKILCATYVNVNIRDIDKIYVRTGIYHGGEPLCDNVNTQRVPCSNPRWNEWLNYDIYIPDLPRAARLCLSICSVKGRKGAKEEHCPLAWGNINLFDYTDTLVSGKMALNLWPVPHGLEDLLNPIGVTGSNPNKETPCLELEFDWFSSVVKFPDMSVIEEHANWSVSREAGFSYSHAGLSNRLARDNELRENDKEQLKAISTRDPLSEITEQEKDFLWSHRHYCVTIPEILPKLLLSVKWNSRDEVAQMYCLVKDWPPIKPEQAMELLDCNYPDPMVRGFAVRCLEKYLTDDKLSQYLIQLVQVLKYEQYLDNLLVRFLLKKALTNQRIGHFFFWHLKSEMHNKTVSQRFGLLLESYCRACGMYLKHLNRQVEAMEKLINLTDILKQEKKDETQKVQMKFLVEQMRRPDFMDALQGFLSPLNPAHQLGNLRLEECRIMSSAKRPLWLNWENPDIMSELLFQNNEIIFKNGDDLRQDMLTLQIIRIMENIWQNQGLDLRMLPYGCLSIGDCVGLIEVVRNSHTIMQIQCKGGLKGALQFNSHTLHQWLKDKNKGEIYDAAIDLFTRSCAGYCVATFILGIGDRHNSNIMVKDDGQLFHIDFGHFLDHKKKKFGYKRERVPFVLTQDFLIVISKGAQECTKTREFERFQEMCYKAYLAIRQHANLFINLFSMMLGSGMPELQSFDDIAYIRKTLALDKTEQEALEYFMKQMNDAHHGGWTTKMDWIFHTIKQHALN
T3 sequence (Q63787 whole entry partner): as the sequence (Q63787 whole entry partner) above
From the text: as §1, §2, §3, §4

[3] = molecular target: T4, human PI3Kbeta p110 catalytic subunit (Rat-1 pBABEpuro Myr-HA-hp110 beta) (Homo sapiens, UniProt P42338); test: Cellular assay PI3Kbeta (p-Akt(S473) SureFire, Rat-1_PI3beta cells); conditions: p-Akt(S473), 1 h compound treatment; read-out: Rat1-PI3Kb/ IC50
T4 construct: Myr (myristoylation signal) (N); HA (N); expressed in transfected cells; host or cells: Rat-1
T4 sequence (P42338 whole entry): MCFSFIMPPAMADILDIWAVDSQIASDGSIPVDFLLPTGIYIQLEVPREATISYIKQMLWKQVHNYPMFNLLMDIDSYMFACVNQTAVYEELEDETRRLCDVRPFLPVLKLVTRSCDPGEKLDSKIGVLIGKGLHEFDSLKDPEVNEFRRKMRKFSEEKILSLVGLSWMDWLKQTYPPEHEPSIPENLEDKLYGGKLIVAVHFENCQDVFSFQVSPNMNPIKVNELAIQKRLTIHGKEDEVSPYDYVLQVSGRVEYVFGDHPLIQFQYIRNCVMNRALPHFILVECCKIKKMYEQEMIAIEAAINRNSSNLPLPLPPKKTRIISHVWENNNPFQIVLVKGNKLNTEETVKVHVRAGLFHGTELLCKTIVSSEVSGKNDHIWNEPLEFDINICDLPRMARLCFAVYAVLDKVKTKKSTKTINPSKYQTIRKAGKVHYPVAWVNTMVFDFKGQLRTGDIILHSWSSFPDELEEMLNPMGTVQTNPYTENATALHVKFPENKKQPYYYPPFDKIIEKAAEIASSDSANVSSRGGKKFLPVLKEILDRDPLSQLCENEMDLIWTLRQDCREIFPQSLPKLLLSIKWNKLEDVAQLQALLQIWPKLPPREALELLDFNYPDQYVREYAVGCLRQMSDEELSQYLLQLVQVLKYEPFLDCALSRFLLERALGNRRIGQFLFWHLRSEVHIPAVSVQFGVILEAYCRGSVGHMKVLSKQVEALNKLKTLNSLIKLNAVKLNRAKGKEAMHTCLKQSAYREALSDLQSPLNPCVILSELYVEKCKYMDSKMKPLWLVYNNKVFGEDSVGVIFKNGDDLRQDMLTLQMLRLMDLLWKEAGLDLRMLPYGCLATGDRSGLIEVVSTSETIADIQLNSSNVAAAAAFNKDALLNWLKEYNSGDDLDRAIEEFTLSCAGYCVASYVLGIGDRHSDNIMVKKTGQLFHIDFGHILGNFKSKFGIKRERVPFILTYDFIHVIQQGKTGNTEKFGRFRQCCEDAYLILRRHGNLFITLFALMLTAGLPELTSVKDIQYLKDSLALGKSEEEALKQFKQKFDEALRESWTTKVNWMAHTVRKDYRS
T4 sequence (Q63787 whole entry partner): as the sequence (Q63787 whole entry partner) above
From the text: as §1, §2, §3, §4

A2058 cells = test: Cell cycle G2/M arrest Cytospin assay to detect tubulin binding (off-target); design: key: 0=no condensed DNA observed (indicating no off target activity); 1=(indicating weak off target activity); 2=(indicating medium off target activity); 3=large amount of condensed DNA observed (indicating strong off-target activity); conditions: 5 μM test item, 24 hours
Description: The off-target effect (evidence of tubulin binding) was measured as follows.
Cell cycle G2/M arrest Cytospin assay to detect tubulin binding (off-target) binding activities of MAPP derivatives: 5×10^5 cells A2058 cells were plated in 6-well cluster, with 2 mL of DMEM (high Glucose containing 1% sodium pyruvate, 1% glutamin and 10% FCS). 18 hours later, the test items were added at a concentration of 5 μM (spiking 1 μL of a 10 mM solution of the test item). 24 hours later, the cells were trypsinized and transferred into a 15 mL conical tube. Cells are then pelleted by centrifugation, and resuspended with PBS/0 (containing 10% FCS). Cells are counted with a CASY counter, and each samples equilibrated to 1×10^6 cells/mL. […] The staining was visually assessed for the presence of condensed DNA and given a score where 0=no condensed DNA observed (indicating no off target activity), 1=(indicating weak off target activity), 2=(indicating medium off target activity), 3=large amount of condensed DNA observed (indicating strong off-target activity).

IC50 (mTOR) | IC50 [1] | IC50 [2] | IC50 [3] | Score (condensed DNA, G2/M arrest; off-target tubulin binding) (A2058 cells) | Structure (SMILES)
1570 nM | 59 nM | 176 nM | 93 nM | 0 | CC1(CO)COC(=O)N1c1cc(-c2cnc(N)nc2C(F)(F)F)nc(N2CCOCC2)n1 (single isomer, unassigned) [Example 3A, 3-(2′-amino-2-morpholino-4′-(trifluoromethyl)-4,5′-bipyrimidin-6-yl)-4-(hydroxymethyl)-4-methyloxazolidin-2-one]
1110 nM | 172 nM | 215 nM | 331 nM | 0 | CC1(CO)COC(=O)N1c1cc(-c2cnc(N)nc2C(F)(F)F)nc(N2CCOCC2)n1 (single isomer, unassigned) [Example 3B, 3-(2′-amino-2-morpholino-4′-(trifluoromethyl)-4,5′-bipyrimidin-6-yl)-4-(hydroxymethyl)-4-methyloxazolidin-2-one]
1230 nM | 70 nM | 120 nM | 132 nM | – | Nc1ncc(-c2cc(N3C(=O)OC[C@@H]3CO)nc(N3CCOCC3)n2)c(C(F)(F)F)n1 [Example 7, (S)-3-(2′-Amino-2-morpholin-4-yl-4′-trifluoromethyl-[4,5′]bipyrimidinyl-6-yl)-4-hydroxymethyl-oxazolidin-2-one]
602 nM | – | – | – | 3 | Nc1cc(C(F)(F)F)c(-c2cc(N3CCOCC3)nc(N3CCOCC3)n2)cn1 [WO2007/084786 Example 10, reference compound]
